From ChEMBL document CHEMBL1201862, “PubChem BioAssay data set” (2004)
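How tested: cells in 96-well plates exposed to compound for 48 hours at five concentrations. GI50: concentration for 50% inhibition of growth.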 Activity calls are given as the source filed them. Rule as the data show it: active = GI50 up to about 1.1 µM and inactive = higher.

Legend:
Assay in all cases: NCI-60 cell line screen, 48 h
786-0 = tested on: 786-0
A498 = tested on: A498
A549 = tested on: A549
ACHN = tested on: ACHN
BT-549 = tested on: BT-549
CAKI-1 = tested on: CAKI-1
CCRF-CEM = tested on: CCRF-CEM
COLO 205 = tested on: COLO 205
DU-145 = tested on: DU-145
EKVX = tested on: EKVX
HCC 2998 = tested on: HCC 2998
HCT-116 = tested on: HCT-116
HCT-15 = tested on: HCT-15
HOP-62 = tested on: HOP-62
HOP-92 = tested on: HOP-92
HT-29 = tested on: HT-29
Hs-578T = tested on: Hs-578T
IGROV-1 = tested on: IGROV-1
K562 = tested on: K562
KM12 = tested on: KM12
LOX IMVI = tested on: LOX IMVI
M14 = tested on: M14
MCF7 = tested on: MCF7
MDA-MB-231 = tested on: MDA-MB-231
MDA-MB-435 = tested on: MDA-MB-435
MDA-N = tested on: MDA-N
MOLT-4 = tested on: MOLT-4
NCI-H226 = tested on: NCI-H226
NCI-H23 = tested on: NCI-H23
NCI-H522 = tested on: NCI-H522
NCI/ADR-RES = tested on: NCI/ADR-RES
OVCAR-3 = tested on: OVCAR-3
OVCAR-4 = tested on: OVCAR-4
OVCAR-5 = tested on: OVCAR-5
OVCAR-8 = tested on: OVCAR-8
PC-3 = tested on: PC-3
RPMI-8226 = tested on: RPMI-8226
SF-268 = tested on: SF-268
SF-295 = tested on: SF-295
SF-539 = tested on: SF-539
SK-MEL-28 = tested on: SK-MEL-28
SK-MEL-2 = tested on: SK-MEL-2
SK-MEL-5 = tested on: SK-MEL-5
SK-OV-3 = tested on: SK-OV-3
SN12C = tested on: SN12C
SNB-19 = tested on: SNB-19
SR = tested on: SR
SW-620 = tested on: SW-620
T47D = tested on: T47D
TK-10 = tested on: TK-10
U-251 = tested on: U-251
UACC-257 = tested on: UACC-257
UACC-62 = tested on: UACC-62
UO-31 = tested on: UO-31
HL-60 = tested on: HL-60
NCI-H460 = tested on: NCI-H460
SNB-75 = tested on: SNB-75

CC(=O)N[C@@H](Cc1ccc(O)cn1)C(=O)NC1CCCCC1
GI50 (786-0): > 100 µM (inactive)
GI50 (A498): > 100 µM (inactive)
GI50 (A549): > 100 µM (inactive)
GI50 (ACHN): > 100 µM (inactive)
GI50 (BT-549): > 100 µM (inactive)
GI50 (CAKI-1): > 100 µM (inactive)
GI50 (CCRF-CEM): > 100 µM (inactive)
GI50 (COLO 205): > 100 µM (inactive)
GI50 (DU-145): > 100 µM (inactive)
GI50 (EKVX): > 100 µM (inactive)
GI50 (HCC 2998): > 100 µM (inactive)
GI50 (HCT-116): > 100 µM (inactive)
GI50 (HCT-15): > 100 µM
GI50 (HOP-62): > 100 µM (inactive)
GI50 (HOP-92): > 100 µM (inactive)
GI50 (HT-29): > 100 µM (inactive)
GI50 (Hs-578T): > 100 µM (inactive)
GI50 (IGROV-1): > 100 µM (inactive)
GI50 (K562): > 100 µM (inactive)
GI50 (KM12): > 100 µM (inactive)
GI50 (LOX IMVI): > 100 µM (inactive)
GI50 (M14): > 100 µM (inactive)
GI50 (MCF7): > 100 µM (inactive)
GI50 (MDA-MB-231): > 100 µM (inactive)
GI50 (MDA-MB-435): > 100 µM (inactive)
GI50 (MDA-N): > 100 µM (inactive)
GI50 (MOLT-4): > 100 µM (inactive)
GI50 (NCI-H226): > 100 µM (inactive)
GI50 (NCI-H23): > 100 µM (inactive)
GI50 (NCI-H522): 30.3 µM (inactive)
GI50 (NCI/ADR-RES): > 100 µM (inactive)
GI50 (OVCAR-3): > 100 µM (inactive)
GI50 (OVCAR-4): > 100 µM (inactive)
GI50 (OVCAR-5): > 100 µM (inactive)
GI50 (OVCAR-8): > 100 µM (inactive)
GI50 (PC-3): > 100 µM (inactive)
GI50 (RPMI-8226): > 100 µM (inactive)
GI50 (SF-268): > 100 µM (inactive)
GI50 (SF-295): > 100 µM (inactive)
GI50 (SF-539): > 100 µM (inactive)
GI50 (SK-MEL-28): > 100 µM (inactive)
GI50 (SK-MEL-2): > 100 µM (inactive)
GI50 (SK-MEL-5): > 100 µM (inactive)
GI50 (SK-OV-3): > 100 µM (inactive)
GI50 (SN12C): > 100 µM (inactive)
GI50 (SNB-19): > 100 µM (inactive)
GI50 (SR): > 100 µM (inactive)
GI50 (SW-620): > 100 µM (inactive)
GI50 (T47D): > 100 µM (inactive)
GI50 (TK-10): > 100 µM (inactive)
GI50 (U-251): > 100 µM (inactive)
GI50 (UACC-257): > 100 µM (inactive)
GI50 (UACC-62): > 100 µM (inactive)
GI50 (UO-31): > 100 µM (inactive)

C=C1C/C(=C/C)C(=O)O[C@@H]2CCN3CC=C(COC(=O)[C@]1(C)O)[C@H]23 [SENECIPHYLLINE]
GI50 (786-0): > 100 µM (inactive)
GI50 (A498): > 100 µM (inactive)
GI50 (A549): > 100 µM (inactive)
GI50 (ACHN): > 100 µM (inactive)
GI50 (BT-549): > 100 µM (inactive)
GI50 (CAKI-1): > 100 µM (inactive)
GI50 (CCRF-CEM): > 100 µM (inactive)
GI50 (COLO 205): > 100 µM (inactive)
GI50 (DU-145): > 100 µM (inactive)
GI50 (EKVX): > 100 µM (inactive)
GI50 (HCC 2998): > 100 µM (inactive)
GI50 (HCT-116): > 100 µM (inactive)
GI50 (HCT-15): > 100 µM
GI50 (HL-60): > 100 µM (inactive)
GI50 (HOP-62): > 100 µM (inactive)
GI50 (HOP-92): > 100 µM (inactive)
GI50 (HT-29): > 100 µM (inactive)
GI50 (Hs-578T): > 100 µM (inactive)
GI50 (IGROV-1): > 100 µM (inactive)
GI50 (K562): > 100 µM (inactive)
GI50 (KM12): > 100 µM (inactive)
GI50 (LOX IMVI): > 100 µM (inactive)
GI50 (M14): > 100 µM (inactive)
GI50 (MCF7): > 100 µM (inactive)
GI50 (MDA-MB-231): > 100 µM (inactive)
GI50 (MDA-MB-435): > 100 µM (inactive)
GI50 (MDA-N): > 100 µM (inactive)
GI50 (NCI-H226): 35.5 µM (inactive)
GI50 (NCI-H23): > 100 µM (inactive)
GI50 (NCI-H460): 84.9 µM (inactive)
GI50 (NCI-H522): > 100 µM (inactive)
GI50 (NCI/ADR-RES): > 100 µM (inactive)
GI50 (OVCAR-3): > 100 µM (inactive)
GI50 (OVCAR-4): > 100 µM (inactive)
GI50 (OVCAR-5): > 100 µM (inactive)
GI50 (OVCAR-8): > 100 µM (inactive)
GI50 (PC-3): > 100 µM (inactive)
GI50 (RPMI-8226): > 100 µM (inactive)
GI50 (SF-268): > 100 µM (inactive)
GI50 (SF-295): > 100 µM (inactive)
GI50 (SF-539): > 100 µM (inactive)
GI50 (SK-MEL-28): > 100 µM (inactive)
GI50 (SK-MEL-2): > 100 µM (inactive)
GI50 (SK-MEL-5): > 100 µM (inactive)
GI50 (SK-OV-3): > 100 µM (inactive)
GI50 (SNB-19): > 100 µM (inactive)
GI50 (SNB-75): > 100 µM (inactive)
GI50 (SR): > 100 µM (inactive)
GI50 (SW-620): > 100 µM (inactive)
GI50 (T47D): > 100 µM (inactive)
GI50 (TK-10): > 100 µM (inactive)
GI50 (U-251): > 100 µM (inactive)
GI50 (UACC-257): > 100 µM (inactive)
GI50 (UACC-62): > 100 µM (inactive)
GI50 (UO-31): > 100 µM (inactive)
